{"source": "patent US4473581A", "about": "(priority 1979, dated 1984)", "key": {"[1]": {"settings": "background statement on known inducers; cited from earlier work"}, "[2]": {"system": "Ehrlich ascites tumor cells", "assay": "Anti-tumor activity of peritoneal exudate cells from Ge treated mice on Ehrlich ascites tumor bearing mice", "assay_type": "in vivo, DDI mice", "settings": "peritoneal exudate cells from mice given 300 mg/kg Ge, six days i.p. (FIG. 3)", "procedure": "An anti-tumor activity test of peritoneal exudate cells obtained from mice treated with Ge in a dosage amount of 300 mg/kg was conducted on Ehrlich ascites tumor bearing mice.\n1×10^5 cells/mouse of Ehrlich ascites tumor cells were transplanted into the peritoneal cavity of DDI mice. Twenty-four hours later, these mice were intraperitoneally supplied with 5×10^3 peritoneal exudate cells obtained from mice treated with Ge once daily for six consecutive days. Peritoneal exudate cells obtained from saline injected mice were likewise supplied to tumor bearing mice as a control."}, "MEP-II tumor cells": {"system": "MEP-II tumor cells", "assay": "Anti-tumor effect of oral Ge in MEP-II tumor bearing mice", "assay_type": "in vivo, DDI mice", "settings": "100 and 300 mg/kg oral, once daily, seven days", "procedure": "4×10^3 MEP-II tumor cells were transplanted intraperitoneally in DDI mice as described above. Twenty-four hours later, Ge was orally administered, once daily for seven consecutive days at a daily dosage of 100 or 300 mg/kg to ascertain any anti-tumor effect. In a control group, 0.2 ml of physiological saline solution was orally administered, also once daily for seven days."}, "FM-3A cells": {"system": "FM-3A cells", "assay": "Growth inhibition of FM-3A tumor cells co-cultured with macrophages from Ge treated mice", "assay_type": "cell-based", "settings": "48 hours", "procedure": "It is known that interferon has the ability to convert a standing macrophage into a tumoricidal macrophage, deemed activated macrophage (A-M.phi.), either in vivo or in vitro. Since the Ge induced the formation of immune interferon in vivo, it was expected that A-M: would be induced in the Ge treated animal.\nPeritoneal exudate cells obtained from mice 72 hours after treatment with a 300 mg/kg dose of Ge were cultured for 20 minutes in a petri dish utilizing RPMI-1640 medium supplemented with 10% fetal calf serum. Cells adhering to the petri dish, obtained by washing with the same culture medium, were separately co-cultured with FM-3A cells as the target tumor cells, in a ratio of 10:1. FM-3A cells were cultured singly, or with macrophages derived from normal mice, as the control. In each run, the growth of FM-3A cells was monitored. A determination of the number of FM-3A cells was carried out per the dye exclusion test using Trypan-Blue. […] Thus, it is apparent that Ge induces the formation of A-M: in live mice."}, "[3]": {"system": "vesicular stomatitis virus (VSV) in human embryonic lung cells", "assay_type": "cell-based", "settings": "human serum, 75 mg/kg oral"}, "[4]": {"system": "vesicular stomatitis virus (VSV) in L-1D cells", "assay_type": "cell-based"}, "[5]": {"system": "vesicular stomatitis virus (VSV) in L-1D cells", "assay_type": "cell-based", "remark": "listed apart in the source"}, "interferon": {"system": "interferon", "assay": "Interferon induction in healthy volunteers", "assay_type": "in vivo", "settings": "human", "procedure": "Capsules of Ge were orally administered to eight healthy volunteers, 21 to 23 years old. The dose administered to one group (two men and two women) was 75 mg/kg and that administrated to the other group (two men and two women) was 25 mg/kg. Serum samples were collected at predetermined intervals, the interferon titers were determined, and the results reflected in FIGS. 4 and 5 were obtained. […] The reported results thus evidence that Ge induces A-M.phi. in humans as well as in mice."}, "rats": {"system": "rats", "assay": "Chronic toxicity test in rats, oral, six months", "settings": "six months, 30, 300 or 3000 mg/kg per day"}, "[6]": {"assay": "Acute toxicity (LD50) in mice", "settings": "mouse, in vivo"}, "[7]": {"assay": "Acute toxicity (LD50) in rats", "settings": "rat, in vivo"}, "dogs": {"system": "dogs", "assay": "Chronic toxicity in dogs, intravenous, six months", "settings": "500 mg/kg per day"}, "[8]": {"settings": "intravenous injection, larger than any physically practicable maximum amount"}}, "note": "Structures can show the parent of a compound that is named as a salt.", "data": [{"compound": "CCCCCCCCCCCCCCCCCCN(CCCCCCCCCCCCCCCCCC)CCCN(CCO)CCO", "note": "[CP-20961]", "values": [{"measurement": "adverse side effects", "setting": "[1]", "value": "one or more adverse side effects"}]}, {"compound": "O=C(O)C[CH2][Ge](=[O])[O][Ge](=[O])[CH2]CC(=O)O", "note": "[Ge]", "values": [{"measurement": "anti-tumor activity of macrophage activated by Ge treatment (in words)", "setting": "[2]", "value": "marked anti-tumor activity"}, {"measurement": "anti-tumor activity (in words)", "setting": "MEP-II tumor cells", "value": "both dosage amounts of Ge exhibited anti-tumor activity"}, {"measurement": "growth of FM-3A cells (in words)", "setting": "FM-3A cells", "value": "prominently inhibited"}, {"measurement": "antiviral activity of induced agent, human cells (in words)", "setting": "[3]", "value": "displayed antiviral activity only in human cells"}, {"measurement": "stability of induced factor to heat and acid (in words)", "setting": "[4]; mouse serum, 56° C. one hour, acidification to pH 2.0", "value": "unstable to thermal treatment at 56 °C for one hour and also to acidification to pH 2.0"}, {"measurement": "trypsin lability of induced factor (in words)", "setting": "[4]; mouse serum, trypsin 37° C., 3 hours", "value": "trypsin labile"}, {"measurement": "type of interferon induced", "setting": "[4]; mouse serum, from thermal and acid treatments", "value": "immune (type II) interferon"}, {"measurement": "viral infection inhibitory activity in serum", "setting": "[5]; mice, 300 mg/kg oral, 25 hours after administration (FIG. 1)", "value": "viral infection inhibitory activity was detected"}, {"measurement": "dose dependency of viral infection inhibitory activity", "setting": "[5]; mice, oral, varied doses (FIG. 2)", "value": "dose dependent"}, {"measurement": "species specificity of induced viral infection inhibitory factor", "setting": "[5]; mouse and human sera compared on L-1D, human embryonic lung and chicken embryonic cells", "value": "species specific"}, {"measurement": "antiviral activity of induced agent, L-1D cells (in words)", "setting": "[5]; mouse serum, 300 mg/kg oral", "value": "displayed resistance to viral infection only in the L-1D cells"}, {"measurement": "production of interferon", "setting": "interferon; 25 mg/kg oral capsules (FIGS. 4 and 5)", "value": "production of interferon was observed, although the level was lower"}, {"measurement": "production of interferon", "setting": "interferon; 75 mg/kg oral capsules (FIGS. 4 and 5)", "value": "significant production of interferon was observed in each case"}]}, {"compound": "O=C(O)C[CH2][Ge](=[O])[O][Ge](=[O])[CH2]CC(=O)O", "note": "[carboxyethyl germanium sesquioxide]", "values": [{"measurement": "death in chronic toxicity test", "setting": "rats", "value": "no rat died"}, {"measurement": "pathological disorder in chronic toxicity test", "setting": "rats", "value": "no pathological disorder was observed"}, {"measurement": "LD50", "setting": "[6]; [8]", "value": "> 1000", "unit": "mg/kg"}, {"measurement": "LD50", "setting": "[6]; oral", "value": "> 6300", "unit": "mg/kg"}, {"measurement": "LD50", "setting": "[7]; [8]", "value": "> 1000", "unit": "mg/kg"}, {"measurement": "LD50", "setting": "[7]; oral", "value": "> 10000", "unit": "mg/kg"}, {"measurement": "toxicity", "setting": "dogs", "value": "no toxicity was found"}]}, {"compound": "CCN(CC)CCOc1ccc2c(c1)C(=O)c1cc(OCCN(CC)CC)ccc1-2", "note": "[tilorone hydrochloride]", "values": [{"measurement": "adverse side effects", "setting": "[1]", "value": "one or more adverse side effects"}]}, {"compound": "double-stranded complex polyriboinosinic acid and polyribocytidylic acid [Poly 1-C, reference compound]", "values": [{"measurement": "Interferon Titer", "setting": "[4]; pH 2", "value": 640}, {"measurement": "Remaining amount of titer", "setting": "[4]; pH 2", "value": 100, "unit": "%"}]}]}
